One data set in a line: Plasma pharmacokinetics. The data set is classed as in vivo, human.
For data set [1], the system named is FGFR. Put plainly: Blood PD biomarkers. The data set is classed as in vivo, human.
Data set [2] relates to tumor models with FGFR alterations. The conditions noted are these: several tumor models with FGFR alterations in vivo; cited from earlier work.
For data set [3], the system named is FGFR. Put plainly: Tissue biomarkers in skin and tumor biopsies. Type of data set: in vivo, human.
For a further data set, the system named is FGFRs 1–3. The conditions noted are these: in vitro, ATP-competitive; cited from earlier work.
A short description of data set [4]: Allometric scaling of single dose PK data from mice, rats and monkeys. Further details: species or system human. The conditions noted are these: allometric scaling model of single dose PK data from mice, rats, monkeys.
Data set [5] has as its system advanced solid tumors harboring FGFR1–3 gene alterations. Put plainly: Tumor response according to RECIST 1.1.

For Debio 1347, the “Mean relative oral bioavailability of tablets versus capsules” value in “Plasma pharmacokinetics” (40 mg single dose, cross-over, 90% CI 0.73–1.05, n=9) came out at 0.88. For the same substance, in the data set “Plasma pharmacokinetics” (majority of patients, once-daily dosing), the “Time to steady-state (Ctrough)” value is listed as “during the first week of treatment”. Moreover, in “Plasma pharmacokinetics” (post-first dose, majority of patients), the “Time to detection in plasma” value is at most 30 min. In the data set “Plasma pharmacokinetics” (post-first oral dose, range 1.5–24), the Median tmax was 3 h. Also, the “Plasma half-life (mean)” value in the data set “Plasma pharmacokinetics” (post-first oral dose, range 4.7–20.6) is listed as 11.5 h. For the same substance, the “Mean apparent oral clearance” value in “Plasma pharmacokinetics” (range 2.7–13.9) is recorded as 7.0 L/h. Also, the “Hyperphosphatemia versus plasma exposure” value in the data set with FGFR [1] (maximum serum phosphate in cycle 1 versus plasma trough levels) is reported as “correlated with Debio 1347 exposure”. Also, in the data set on FGFR [1] (oral once daily), the “Dose at which serum phosphate confirmed target engagement” value is at least 60 mg/day. In addition, the “Ctrough at which serum phosphate increases of 50% from baseline were achieved” value in the data set with FGFR [1] (seen in about half of patients at 60 mg/day, majority at ≥80 mg/day) was “about 400 ng/mL”. The “Plasma FGF23 change” value in the data set on FGFR [1] (steady-state, without clear relationship to the dose) is “overall increase”. For the same substance, the “Efficacy in tumor models” value in data set [2] was “effective”. Besides, the “DUSP6 mRNA expression change in tumor biopsies” value with FGFR [3] (on treatment (day 8), 14 paired biopsies) is listed as “a decrease in DUSP6 was observed”. Further, the “Change of phosphorylated markers (pERK, pFRS2, pS6) in skin biopsies” value in the data set on FGFR [3] (predose to day 8, 31 biopsy pairs, immunohistochemistry) is reported as “no clear decrease”. The “Patients with DUSP6 decrease >50% who achieved a PR” value with FGFR [3] (tumor biopsies) is reported as “two out of three”. The “Inhibitory concentration for FGFRs 1–3” value in the data set on FGFRs 1–3 is “low nanomolar”. In addition, in data set [4], the “Predicted plasma half-life in humans” value was 9 h. Besides, in data set [5] (10 patients, doses ≥60 mg/day), the “Disease stabilization among patients with confirmed FGFR fusions” value is on record as 5 patients and the “PRs among patients with confirmed FGFR fusions” value came out at 3 patients. Moreover, in data set [5] (57 evaluable), the “Patients with stable disease as best objective response” value amounted to 16 patients and the “Patients with stable disease showing reduced target lesion size (tumor size regressions of ≤30%)” value amounted to 10 patients. The “Response per independent central radiological review” value in data set [5] (one patient with cholangiocarcinoma, 110 mg, changed from partial) is given as “confirmed complete response”. Besides, in data set [5] (overall), the “Disease control rate (DCR)” value was 39%. Besides, the “Disease control rate (DCR)” value in data set [5] (patients with confirmed FGFR fusions, ≥60 mg/day) was determined as 80%. Moreover, in data set [5] (range 24–47), the “Median treatment duration in patients with disease control” value is listed as 34 weeks.
